Measurements taken from US20120277209A1, “PYRAZINE COMPOUNDS AS PHOSPHODIESTERASE 10 INHIBITORS” (Amgen Inc., priority 2009, published 2012).

biological target: PDE10 (UniProt Q9Y233); assay: PDE10 enzyme inhibition, IMAP TR-FRET assay (MPDE10A7 Enzyme Activity and Inhibition); format: biochemical; conditions: IC50 class against PDE10; read-out: IC50
Outline: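 PDE10A enzyme or tissue homogenate preincubated with compounds 30 min at room temperature, then fluorescein-labelled cAMP or cGMP added for 60 min. IMAP binding reagent stop, TR-FRET read. Values are mean IC50s, grouped into five potency classes.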

Row | IC50 [nM] | Compound
1 | < 25 | CC(Cc1ccccn1)NC(=O)c1nccnc1Oc1ccc(C(=O)c2nc3ccccc3[nH]2)cc1 (racemic) [Example 259, (rac)-3-(4-(1H-benzo[d]imidazole-2-carbonyl)phenoxy)-N-(1-(pyridin-2-yl)propan-2-yl)pyrazine-2-carboxamide]
2 | < 25 | O=C1CCC(c2nccnc2Oc2ccc(C(=O)c3nc4ccccc4[nH]3)cc2)CC1 [Example 195, 4-(2-(4-(1H-BENZO[D]IMIDAZOLE-2-CARBONYL)PHENOXY)PYRAZIN-3-YL)CYCLOHEXANONE]
3 | < 25 | O=C(c1ccc(Oc2nccnc2[C@H]2CCC[C@@H](O)C2)cc1)c1nc2ccccc2[nH]1 (racemic) [Example 189, (rac)-cis-(1H-benzo[d]imidazol-2-yl)(4-(3-(3-hydroxycyclohexyl)pyrazin-2-yloxy)phenyl)methanone]
4 | < 25 | O=C(c1ccc(Oc2nccnc2[C@H]2CCC[C@H](O)C2)cc1)c1nc2ccccc2[nH]1 (racemic) [Example 190, (rac)-trans-(1H-benzo[d]imidazol-2-yl)(4-(3-(3-hydroxycyclohexyl)pyrazin-2-yloxy)phenyl)methanone]
5 | < 25 | Fc1ccc2nc(Nc3ccc(Oc4nccnc4C4CCOCC4)cc3)sc2c1 [Example 214, 6-fluoro-N-(4-(3-(tetrahydro-2H-pyran-4-yl)pyrazin-2-yloxy)phenyl)benzo[d]thiazol-2-amine]
6 | < 25 | O=C(c1ccc(Oc2nccnc2C(=O)NCCc2ccccc2)cc1)c1nc2ccccc2[nH]1 [Example 254, 3-(4-(1H-benzo[d]imidazole-2-carbonyl)phenoxy)-N-phenethylpyrazine-2-carboxamide]
7 | < 25 | CN1CCC(c2nccnc2Oc2ccc(Nc3nc4ccccc4s3)cc2)CC1 [Example 237, N-(4-(3-(1-methylpiperidin-4-yl)pyrazin-2-yloxy)phenyl)benzo [d]thiazol-2-amine]
8 | < 25 | O=C(c1ccc(Oc2nccnc2C(=O)NCCc2ccccn2)cc1)c1nc2ccccc2[nH]1 [Example 257, 3-(4-(1H-benzo[d]imidazole-2-carbonyl)phenoxy)-N-(2-(pyridin-2-yl)ethyl)pyrazine-2-carboxamide]
9 | < 25 | COCC(=O)N1CCC(c2nccnc2Oc2ccc(C(=O)c3nc4ccccc4n3C)cc2)CC1 [Example 243, 2-methoxy-1-(4-(3-(4-(1-methyl-1H-benzo[d]imidazole-2-carbonyl)phenoxy)pyrazin-2-yl)piperidin-1-yl)ethanone]
10 | < 25 | CC(F)C(=O)N1CCC(c2nccnc2Oc2ccc(C(=O)c3nc4ccccc4[nH]3)cc2)CC1 (centres unmarked) [Example 234, 1-(4-(3-(4-(1H-benzo[d]imidazole-2-carbonyl)phenoxy)pyrazin-2-yl)piperidin-1-yl)-2-fluoropropan-1-one]

The remaining lines, values behind:

Row | Compound | IC50 [nM]
11 | Fc1cccc2nc(Nc3ccc(Oc4nccnc4Cl)cc3)sc12 [Example 100, N-(4-(3-chloropyrazin-2-yloxy)-phenyl)-7-fluorobenzo[d]thiazol-2-amine] | 1000 to 5000
12 | COC1CC=C(c2nccnc2Oc2ccc(C(=O)c3nc4ccccc4[nH]3)cc2)CC1 (centres unmarked) [Example 187, 1H-Benzimidazol-2-yl(4-((3-(4-methoxy-1-cyclohexen-1-yl)-2-pyrazinyl)oxy)phenyl)methanone] | < 25
13 | O=C(c1ccc(Oc2nccnc2Oc2ccccc2)cc1)c1nc2ccccc2[nH]1 [Example 167, (1H-benzo[d]imidazol-2-yl)(4-(3-phenoxypyrazin-2-yloxy)phenyl)methanone] | 100 to 250
14 | COc1ncc(F)cc1-c1nccnc1Oc1ccc(C(=O)c2nc3ccccc3[nH]2)cc1 [Example 116, (1H-benzo[d]imidazol-2-yl)(4-(3-(5-fluoro-2-methoxypyridin-3-yl)pyrazin-2-yloxy)phenyl)methanone] | < 25
15 | COc1ccccc1-c1nccnc1Oc1ccc(C(=O)c2nc3ccccc3[nH]2)cc1 [Example 114, (1H-benzo[d]imidazol-2-yl)(4-(3-(2-methoxyphenyl)pyrazin-2-yloxy)phenyl)methanone] | 25 to 100
16 | N#CC1CCN(c2nccnc2Oc2ccc(Nc3nc4ccccc4s3)cc2)C1 (centres unmarked) [Example 84, 1-(3-(4-(benzo[d]thiazol-2-ylamino)phenoxy)pyrazin-2-yl)pyrrolidine-3-carbonitrile] | < 25
17 | Cc1cc(-c2nccnc2Oc2ccc(C(=O)c3nc4ccccc4[nH]3)cc2)ccn1 [Example 107, (1H-benzo[d]imidazol-2-yl)(4-(3-(2-methylpyridin-4-yl)pyrazin-2-yloxy)phenyl)methanone] | < 25
18 | COc1cccc(-c2nccnc2Oc2ccc(Nc3nc4ccccc4s3)cc2)c1 [Example 150, N-(4-(3-(3-methoxyphenyl)pyrazin-2-yloxy)phenyl)benzo[d]thiazol-2-amine] | 25 to 100
19 | COc1cc(-c2nccnc2Oc2ccc(C(=O)c3nc4ccccc4[nH]3)cc2)ccn1 [Example 120, (1H-benzo[d]imidazol-2-yl)(4-(3-(2-methoxypyridin-4-yl)pyrazin-2-yloxy)phenyl)methanone] | < 25
20 | O=C(c1ccc(Oc2nccnc2Cl)cc1)c1nc2ccc(F)cc2[nH]1 [Example 4, [4-(3-CHLORO-PYRAZIN-2-YLOXY)-PHENYL]-(6-FLUORO-1H-BENZOIMIDAZOL-2-YL)-METHANONE] | 1000 to 5000
21 | Cc1ncsc1CCOc1nccnc1Oc1ccc(C(=O)c2nc3ccccc3[nH]2)cc1 [Example 170, (1H-benzo[d]imidazol-2-yl)(4-(3-(2-(4-methylthiazol-5-yl)ethoxy)pyrazin-2-yloxy)phenyl)methanone] | 100 to 250
22 | COc1nc2ccccc2cc1-c1nccnc1Oc1ccc(C(=O)c2nc3ccccc3[nH]2)cc1 [Example 115, (1H-benzo[d]imidazol-2-yl)(4-(3-(2-methoxyquinolin-3-yl)pyrazin-2-yloxy)phenyl)methanone] | < 25
23 | O=C(c1ccc(Oc2nccnc2-c2ccnc3ccccc23)cc1)c1nc2ccccc2[nH]1 [Example 129, (1H-benzo[d]imidazol-2-yl)(4-(3-(quinolin-4-yl)pyrazin-2-yloxy)phenyl)methanone] | 25 to 100
24 | N#Cc1cccc(-c2nccnc2Oc2ccc(C(=O)c3nc4ccccc4[nH]3)cc2)c1 [Example 125, 3-(3-(4-(1H-benzo[d]imidazole-2-carbonyl)phenoxy)pyrazin-2-yl)benzonitrile] | < 25
25 | CC(C)COc1nccnc1Oc1ccc(C(=O)c2nc3ccccc3[nH]2)cc1 [Example 162, (1H-benzo[d]imidazol-2-yl)(4-(3-isobutoxypyrazin-2-yloxy)phenyl)methanone] | 1000 to 5000

same assay, conditions: PDE10 enzyme inhibition; average IC50 data for each compound; read-out: Average IC50

Row | IC50 [nM] | Compound
26 | 1.91 | COc1cnccc1-c1nccnc1Oc1ccc(Nc2nc3ccccc3s2)cc1 [drawing 961]
27 | 7.56 | COc1cc(-c2nccnc2Oc2ccc(C(=O)c3nc4ccccc4[nH]3)cc2)ccn1 [drawing 883]
28 | 0.024 | COCC(=O)N1CCC(c2nccnc2Oc2ccc(Nc3nc4ccccc4s3)cc2)CC1 [drawing 946]
29 | 1.57 | O[C@H]1CCC[C@H](c2nccnc2Oc2ccc(Nc3nc4ccccc4s3)cc2)C1 [drawing 894]
30 | 12.7 | CC(C)N1CCN(c2nccnc2Oc2ccc(Nc3nc4ccccc4s3)cc2)CC1=O [drawing 766]
31 | 0.321 | COc1ncccc1-c1nccnc1Oc1ccc(C(=O)c2nc3ccccc3[nH]2)cc1 [drawing 866]
32 | 42 | N#Cc1cccc(-c2nccnc2Oc2ccc(C(=O)c3nc4ccccc4[nH]3)cc2)c1 [drawing 756]
33 | 1.12 | CC(=O)N1CCC(c2nccnc2Oc2ccc(Nc3nc4ccccc4s3)cc2F)CC1 [drawing 984]
34 | 4.46 | N#CC1(c2nccnc2Oc2ccc(Nc3nc4ccccc4s3)cc2)CCOCC1 [drawing 867]
35 | 56.6 | CC(C)Oc1nccnc1Oc1ccc(C(=O)c2nc3ccccc3[nH]2)cc1 [drawing 844]
36 | 37 | COC1CCN(c2nccnc2Oc2ccc(Nc3nc4ccccc4s3)cc2)CC1 [drawing 767]
37 | 1.34 | O[C@H]1CCC[C@H](c2nccnc2Oc2ccc(Nc3nc4ccccc4s3)cc2)C1 [drawing 913]
38 | 0.593 | O=C(c1ccc(Oc2nccnc2C2CCOCC2)cc1)c1nc2ccc(F)cc2[nH]1 [drawing 987]
39 | 614 | Fc1cc(Oc2nccnc2Cl)ccc1Nc1nc2ccccc2s1 [drawing 836]
40 | 14.4 | c1ccc2sc(Nc3ccc(Oc4nccnc4-c4cccc5ncccc45)cc3)nc2c1 [drawing 821]
41 | 17.5 | Cc1cc(-c2nccnc2Oc2ccc(Nc3nc4ccccc4s3)cc2)ccn1 [drawing 750]
42 | 39.5 | COCC1CCN(c2nccnc2Oc2ccc(Nc3nc4ccccc4s3)cc2)CC1 [drawing 741]
43 | 11.8 | Fc1ccc2sc(Nc3ccc(Oc4nccnc4C4CCOCC4)cc3)nc2c1 [drawing 881]
44 | 3.67 | COc1ncccc1-c1nccnc1Oc1ccc(Nc2nc3ccccc3s2)cc1 [drawing 886]
45 | 0.101 | c1ccc2[nH]c(Nc3ccc(Oc4nccnc4C4CCOCC4)cc3)nc2c1 [drawing 863]

The remaining lines, values behind:

Row | Compound | IC50 [nM]
46 | N#C[C@@H]1CCCN(c2nccnc2Oc2ccc(C(=O)c3nc4ccccc4[nH]3)cc2)C1 (stereo in doubt) | 6.79
47 | Cn1c(C(=O)c2ccc(Oc3nccnc3Cl)cc2)nc2ccccc21 | 187
48 | O=C(c1ccc(Oc2nccnc2N2CCC[C@H](CCO)C2)cc1)c1nc2ccccc2[nH]1 (stereo in doubt) | 1.86
49 | CCOC(=O)[C@@H]1CCCN(c2nccnc2Oc2ccc(C(=O)c3nc4ccccc4[nH]3)cc2)C1 (stereo in doubt) | 0.773
50 | O=C(c1ccc(Oc2nccnc2N2CCC(CO)CC2)cc1)c1nc2ccccc2[nH]1 | 0.32
51 | CCOc1nccnc1Oc1ccc(C(=O)c2nc3ccccc3[nH]2)cc1 | 46
52 | O=C(c1ccc(Oc2nccnc2N2CCOCC2)cc1)c1nc2ncccc2[nH]1 | 11.6

same assay, conditions: PDE10 enzyme inhibition; chiral compounds separated from racemic mixtures; read-out: IC50

Row | IC50 [nM] | Compound
53 | < 25 | O=C(c1ccc(Oc2nccnc2[C@@H]2CCC[C@H](O)C2)cc1)c1nc2ccccc2[nH]1 [Example 269, (1H-benzo[d]imidazol-2-yl)(4-(3-((1R,3S)-3-hydroxycyclohexyl)pyrazin-2-yloxy)phenyl) methanone]
